{"source": "ChEMBL document CHEMBL4387741", "about": "“Optimization of novel reversible Bruton's tyrosine kinase inhibitors identified using Tethering-fragment-based screens” (Bioorg Med Chem, 2019)", "key": {"[1]": {"target": "Ephrin type-A receptor 6 (Homo sapiens) (UniProt Q9UF33)", "assay": "Inhibition of wild-type human partial length EPHA6 (Y700 to E1046 residues) expressed in bacterial expression system at 1 uM by Kinomescan method relative to control"}, "[2]": {"target": "Fibroblast growth factor receptor 1 (Homo sapiens) (UniProt P11362)", "assay": "Inhibition of wild-type human partial length FGFR1 (P357 to V669 residues) expressed in bacterial expression system at 1 uM by Kinomescan method relative to control"}, "[3]": {"test_system": "Fibroblast growth factor receptor 3 (Homo sapiens), P22607 [G697C]", "sequence (P22607 whole entry G697C, the tested form may be a part)": "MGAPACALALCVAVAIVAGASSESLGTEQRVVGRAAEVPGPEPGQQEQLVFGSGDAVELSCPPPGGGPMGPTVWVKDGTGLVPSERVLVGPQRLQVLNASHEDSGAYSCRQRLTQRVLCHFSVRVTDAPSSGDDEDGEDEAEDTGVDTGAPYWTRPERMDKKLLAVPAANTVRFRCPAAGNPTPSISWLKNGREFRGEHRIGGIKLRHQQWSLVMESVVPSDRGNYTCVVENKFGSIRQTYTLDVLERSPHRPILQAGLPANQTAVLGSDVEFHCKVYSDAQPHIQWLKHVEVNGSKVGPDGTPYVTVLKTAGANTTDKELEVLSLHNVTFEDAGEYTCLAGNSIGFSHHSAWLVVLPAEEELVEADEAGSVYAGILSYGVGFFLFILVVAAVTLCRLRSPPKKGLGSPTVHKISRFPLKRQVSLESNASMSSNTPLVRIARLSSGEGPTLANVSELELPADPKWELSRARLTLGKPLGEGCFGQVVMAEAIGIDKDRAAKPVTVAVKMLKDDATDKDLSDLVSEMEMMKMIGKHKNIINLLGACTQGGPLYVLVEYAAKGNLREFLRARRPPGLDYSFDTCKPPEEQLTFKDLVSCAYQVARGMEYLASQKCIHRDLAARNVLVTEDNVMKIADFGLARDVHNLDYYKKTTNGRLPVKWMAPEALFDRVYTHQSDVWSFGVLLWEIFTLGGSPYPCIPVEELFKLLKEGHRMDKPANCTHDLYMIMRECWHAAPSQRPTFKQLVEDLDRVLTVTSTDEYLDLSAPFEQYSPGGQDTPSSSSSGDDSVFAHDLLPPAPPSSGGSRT", "assay": "Inhibition of human partial length FGFR3 G697C mutant (R442 to S771 residues) expressed in bacterial expression system at 1 uM by Kinomescan method relative to control"}, "[4]": {"target": "Serine/threonine-protein kinase haspin (Homo sapiens) (UniProt Q8TF76)", "sequence (Q8TF76 whole entry, the tested form may be a part)": "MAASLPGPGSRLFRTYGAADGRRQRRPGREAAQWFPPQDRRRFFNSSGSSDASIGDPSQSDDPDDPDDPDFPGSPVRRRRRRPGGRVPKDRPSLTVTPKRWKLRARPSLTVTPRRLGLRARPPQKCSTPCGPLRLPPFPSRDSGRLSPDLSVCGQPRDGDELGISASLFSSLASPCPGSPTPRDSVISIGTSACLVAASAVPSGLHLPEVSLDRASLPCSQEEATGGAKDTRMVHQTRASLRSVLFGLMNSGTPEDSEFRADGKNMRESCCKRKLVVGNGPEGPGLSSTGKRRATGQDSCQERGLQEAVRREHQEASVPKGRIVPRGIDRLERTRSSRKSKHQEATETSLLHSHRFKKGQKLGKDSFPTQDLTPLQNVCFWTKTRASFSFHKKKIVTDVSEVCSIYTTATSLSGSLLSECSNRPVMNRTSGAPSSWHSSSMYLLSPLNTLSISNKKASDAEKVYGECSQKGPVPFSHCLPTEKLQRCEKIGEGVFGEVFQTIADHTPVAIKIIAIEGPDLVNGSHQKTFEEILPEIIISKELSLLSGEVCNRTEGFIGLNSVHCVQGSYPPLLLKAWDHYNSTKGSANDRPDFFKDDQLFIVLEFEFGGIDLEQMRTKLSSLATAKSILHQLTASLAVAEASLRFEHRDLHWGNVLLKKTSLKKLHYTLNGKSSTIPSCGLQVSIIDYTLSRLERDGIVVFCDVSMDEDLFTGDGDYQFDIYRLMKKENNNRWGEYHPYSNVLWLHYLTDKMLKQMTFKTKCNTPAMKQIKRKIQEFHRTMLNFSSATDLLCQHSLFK", "assay": "Inhibition of wild-type human partial length HASPIN (I452 to K798 residues) expressed in mammalian expression system at 1 uM by Kinomescan method relative to control"}, "[5]": {"target": "Insulin receptor-related protein (Homo sapiens) (UniProt P14616)", "sequence (P14616 27-742 limits assumed)": "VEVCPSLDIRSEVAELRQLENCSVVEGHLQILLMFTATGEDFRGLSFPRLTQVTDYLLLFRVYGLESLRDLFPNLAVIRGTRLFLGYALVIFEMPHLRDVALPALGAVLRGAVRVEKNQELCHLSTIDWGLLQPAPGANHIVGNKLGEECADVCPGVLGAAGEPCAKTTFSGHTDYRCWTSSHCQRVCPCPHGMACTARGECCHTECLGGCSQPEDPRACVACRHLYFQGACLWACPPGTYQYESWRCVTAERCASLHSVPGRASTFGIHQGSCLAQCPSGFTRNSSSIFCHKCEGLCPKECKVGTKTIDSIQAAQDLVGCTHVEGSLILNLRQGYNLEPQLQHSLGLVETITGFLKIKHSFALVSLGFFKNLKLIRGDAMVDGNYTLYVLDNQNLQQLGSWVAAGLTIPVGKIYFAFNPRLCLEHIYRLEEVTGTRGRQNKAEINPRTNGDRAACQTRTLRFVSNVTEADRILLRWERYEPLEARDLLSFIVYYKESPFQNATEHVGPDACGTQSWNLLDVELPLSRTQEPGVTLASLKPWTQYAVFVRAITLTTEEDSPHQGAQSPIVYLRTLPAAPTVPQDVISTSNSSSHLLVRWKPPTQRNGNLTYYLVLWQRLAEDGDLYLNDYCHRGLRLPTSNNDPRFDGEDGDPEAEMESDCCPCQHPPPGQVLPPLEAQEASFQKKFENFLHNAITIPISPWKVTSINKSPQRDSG", "sequence (P14616 747-1297 limits assumed)": "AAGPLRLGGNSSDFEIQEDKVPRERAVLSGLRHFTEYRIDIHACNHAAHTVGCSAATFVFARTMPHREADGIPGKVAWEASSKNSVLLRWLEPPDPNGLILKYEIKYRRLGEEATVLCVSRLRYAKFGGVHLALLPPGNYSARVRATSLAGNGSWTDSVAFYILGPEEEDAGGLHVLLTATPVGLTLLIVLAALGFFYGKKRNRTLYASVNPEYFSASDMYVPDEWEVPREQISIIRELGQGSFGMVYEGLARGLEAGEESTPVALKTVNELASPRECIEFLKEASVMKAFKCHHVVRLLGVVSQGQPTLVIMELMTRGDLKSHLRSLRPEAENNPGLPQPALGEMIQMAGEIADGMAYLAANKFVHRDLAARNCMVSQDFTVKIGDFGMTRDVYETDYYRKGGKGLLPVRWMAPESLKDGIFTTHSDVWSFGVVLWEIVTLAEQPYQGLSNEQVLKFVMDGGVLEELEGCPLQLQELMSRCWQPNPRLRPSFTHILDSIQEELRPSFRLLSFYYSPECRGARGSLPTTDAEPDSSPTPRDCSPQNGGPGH", "assay": "Inhibition of wild-type human partial length INSRR (R950 to E1278 residues) expressed in bacterial expression system at 1 uM by Kinomescan method relative to control"}, "[6]": {"test_system": "Mast/stem cell growth factor receptor Kit (Homo sapiens), P10721 [A829P]", "assay": "Inhibition of human partial length KIT A829P mutant (I571 to D952 residues) expressed in mammalian expression system at 1 uM by Kinomescan method relative to control"}, "[7]": {"target": "LIM domain kinase 2 (Homo sapiens) (UniProt P53671)", "assay": "Inhibition of wild-type human full length LIMK2 (M1 to P638 residues) expressed in bacterial expression system at 1 uM by Kinomescan method relative to control"}, "[8]": {"target": "Phosphorylase b kinase gamma catalytic chain, liver/testis isoform (Homo sapiens) (UniProt P15735)", "sequence (P15735 whole entry, the tested form may be a part, canonical isoform)": "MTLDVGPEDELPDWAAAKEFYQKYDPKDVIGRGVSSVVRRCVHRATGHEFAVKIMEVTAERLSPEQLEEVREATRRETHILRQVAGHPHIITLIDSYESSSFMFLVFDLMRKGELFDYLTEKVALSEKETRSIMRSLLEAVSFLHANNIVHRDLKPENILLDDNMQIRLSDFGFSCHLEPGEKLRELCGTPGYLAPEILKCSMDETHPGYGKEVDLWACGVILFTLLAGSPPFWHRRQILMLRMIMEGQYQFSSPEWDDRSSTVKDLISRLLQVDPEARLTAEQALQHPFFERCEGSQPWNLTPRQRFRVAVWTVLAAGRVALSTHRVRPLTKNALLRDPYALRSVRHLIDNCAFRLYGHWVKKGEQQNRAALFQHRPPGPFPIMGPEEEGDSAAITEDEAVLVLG", "assay": "Inhibition of wild-type human partial length PHKG2 (M1 to W300 residues) expressed in bacterial expression system at 1 uM by Kinomescan method relative to control"}, "[9]": {"target": "Tyrosine-protein kinase Srms (Homo sapiens) (UniProt Q9H3Y6)", "assay": "Inhibition of wild-type human partial length SRMS (L208 to P488 residues) expressed in mammalian expression system at 1 uM by Kinomescan method relative to control"}, "[10]": {"target": "Wee1-like protein kinase 2 (Homo sapiens) (UniProt P0C1S8)", "assay": "Inhibition of wild-type human partial length WEE2 (M204 to K492 residues) expressed in bacterial expression system at 1 uM by Kinomescan method relative to control"}, "[11]": {"target": "Tyrosine-protein kinase BTK (Homo sapiens, UniProt Q06187)", "assay": "biochemical", "description": "Reversible inhibition of recombinant full-length N-terminal 6-His-tagged human BTK expressed in baculovirus infected Sf21 insect cells using fluorescent-labeled polyGAT peptide as substrate incubated for 30 mins by TR-FRET assay"}, "[12]": {"test_system": "Tyrosine-protein kinase ABL1 (Homo sapiens), P00519 [F317L]", "assay": "Inhibition of human non-phosphorylated ABL1 F317L mutant (S229 to K512 residues) expressed in mammalian expression system at 10 uM by Kinomescan method relative to control"}, "[13]": {"target": "Aurora kinase B (Homo sapiens) (UniProt Q96GD4)", "sequence (Q96GD4 whole entry, the tested form may be a part)": "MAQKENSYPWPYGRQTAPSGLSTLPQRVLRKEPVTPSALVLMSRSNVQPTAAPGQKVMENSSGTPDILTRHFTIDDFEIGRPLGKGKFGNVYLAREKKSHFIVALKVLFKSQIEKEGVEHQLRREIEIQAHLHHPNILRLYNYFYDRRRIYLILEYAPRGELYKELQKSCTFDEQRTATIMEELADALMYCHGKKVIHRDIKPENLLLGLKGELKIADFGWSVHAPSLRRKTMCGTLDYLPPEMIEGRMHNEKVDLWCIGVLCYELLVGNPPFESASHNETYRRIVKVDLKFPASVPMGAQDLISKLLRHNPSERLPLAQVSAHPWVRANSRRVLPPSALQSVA", "assay": "Inhibition of wild-type human partial length AURKB (D25 to A303 residues) expressed in mammalian expression system at 10 uM by Kinomescan method relative to control"}, "[14]": {"target": "Calcium/calmodulin-dependent protein kinase type IV (Homo sapiens) (UniProt Q16566)", "assay": "Inhibition of wild-type human partial length CAMK4 (A22 to A322 residues) expressed in bacterial expression system at 10 uM by Kinomescan method relative to control"}, "[15]": {"target": "Epithelial discoidin domain-containing receptor 1 (Homo sapiens) (UniProt Q08345)", "assay": "Inhibition of wild-type human partial length DDR1 (R565 to V876 residues) expressed in bacterial expression system at 10 uM by Kinomescan method relative to control"}, "[16]": {"target": "Eukaryotic translation initiation factor 2-alpha kinase 1 (Homo sapiens) (UniProt Q9BQI3)", "assay": "Inhibition of wild-type human partial length EIF2AK1 (Q147 to E603 residues) expressed in mammalian expression system at 10 uM by Kinomescan method relative to control"}, "[17]": {"target": "Cyclin-G-associated kinase (Homo sapiens) (UniProt O14976)", "assay": "Inhibition of wild-type human partial length GAK (G13 to Y338 residues) expressed in bacterial expression system at 10 uM by Kinomescan method relative to control"}, "[18]": {"target": "Mitogen-activated protein kinase 9 (Homo sapiens) (UniProt P45984)", "assay": "Inhibition of wild-type human full length JNK2 (M1 to Q382 residues) expressed in mammalian expression system at 10 uM by Kinomescan method relative to control"}, "[19]": {"target": "Mitogen-activated protein kinase kinase kinase 4 (Homo sapiens) (UniProt Q9Y6R4)", "assay": "Inhibition of wild-type human partial length MAP3K4 (G1319 to E1608 residues) expressed in bacterial expression system at 10 uM by Kinomescan method relative to control"}, "[20]": {"target": "Serine/threonine-protein kinase MRCK alpha (Homo sapiens) (UniProt Q5VT25)", "assay": "Inhibition of wild-type human partial length MRCKA (L57 to V418 residues) expressed in bacterial expression system at 10 uM by Kinomescan method relative to control"}, "[21]": {"target": "Serine/threonine-protein kinase 26 (Homo sapiens) (UniProt Q9P289)", "sequence (Q9P289 2-416 limits assumed)": "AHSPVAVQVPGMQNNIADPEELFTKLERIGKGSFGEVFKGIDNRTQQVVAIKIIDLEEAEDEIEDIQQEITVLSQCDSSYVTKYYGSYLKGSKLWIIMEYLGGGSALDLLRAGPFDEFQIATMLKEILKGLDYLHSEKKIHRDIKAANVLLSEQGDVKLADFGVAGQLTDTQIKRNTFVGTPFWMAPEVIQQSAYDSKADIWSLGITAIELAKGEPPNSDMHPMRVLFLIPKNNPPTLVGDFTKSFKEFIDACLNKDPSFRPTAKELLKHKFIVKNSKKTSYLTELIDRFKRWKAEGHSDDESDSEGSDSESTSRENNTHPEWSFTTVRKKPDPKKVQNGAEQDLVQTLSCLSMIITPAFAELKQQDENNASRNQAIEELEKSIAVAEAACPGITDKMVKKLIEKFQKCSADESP", "assay": "Inhibition of wild-type human full length MST4 (M1 to P416 residues) expressed in mammalian expression system at 10 uM by Kinomescan method relative to control"}, "[22]": {"target": "Serine/threonine-protein kinase Nek5 (Homo sapiens) (UniProt Q6P3R8)", "assay": "Inhibition of wild-type human partial length NEK5 (M1 to M279 residues) expressed in bacterial expression system at 10 uM by Kinomescan method relative to control"}, "[23]": {"test_system": "Phosphatidylinositol 4,5-bisphosphate 3-kinase catalytic subunit alpha isoform (Homo sapiens), P42336 [E542K]", "assay": "Inhibition of human partial length PIK3CA E542K mutant (R108 to N1068 residues) expressed in mammalian expression system at 10 uM by Kinomescan method relative to control"}, "[24]": {"target": "Serine/threonine-protein kinase N1 (Homo sapiens) (UniProt Q16512)", "sequence (Q16512 2-942 limits assumed)": "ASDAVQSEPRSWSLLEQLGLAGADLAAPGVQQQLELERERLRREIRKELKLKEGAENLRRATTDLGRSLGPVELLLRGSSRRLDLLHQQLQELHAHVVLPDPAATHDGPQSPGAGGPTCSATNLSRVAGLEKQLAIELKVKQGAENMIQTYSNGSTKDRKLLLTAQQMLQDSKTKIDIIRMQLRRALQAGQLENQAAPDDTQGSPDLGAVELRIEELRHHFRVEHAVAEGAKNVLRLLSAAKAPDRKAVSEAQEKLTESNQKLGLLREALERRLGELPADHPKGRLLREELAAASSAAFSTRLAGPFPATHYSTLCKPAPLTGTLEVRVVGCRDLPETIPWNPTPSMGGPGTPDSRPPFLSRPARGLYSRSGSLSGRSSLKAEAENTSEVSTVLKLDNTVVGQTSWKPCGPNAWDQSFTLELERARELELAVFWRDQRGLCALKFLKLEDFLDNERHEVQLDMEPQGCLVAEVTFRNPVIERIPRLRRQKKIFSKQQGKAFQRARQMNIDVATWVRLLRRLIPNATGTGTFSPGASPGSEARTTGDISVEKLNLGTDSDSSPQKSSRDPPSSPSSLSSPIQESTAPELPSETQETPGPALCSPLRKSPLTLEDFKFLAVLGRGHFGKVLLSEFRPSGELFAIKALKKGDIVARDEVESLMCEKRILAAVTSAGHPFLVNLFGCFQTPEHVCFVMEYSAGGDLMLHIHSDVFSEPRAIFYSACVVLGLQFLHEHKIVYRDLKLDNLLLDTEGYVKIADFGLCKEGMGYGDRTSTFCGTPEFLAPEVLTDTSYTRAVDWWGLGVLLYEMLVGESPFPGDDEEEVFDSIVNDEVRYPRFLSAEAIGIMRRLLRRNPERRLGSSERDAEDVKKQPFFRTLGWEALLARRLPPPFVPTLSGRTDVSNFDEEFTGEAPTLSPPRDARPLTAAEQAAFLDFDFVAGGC", "assay": "Inhibition of wild-type human partial length PKN1 (E598 to C948 residues) expressed in bacterial expression system at 10 uM by Kinomescan method relative to control"}, "[25]": {"target": "Uncharacterized serine/threonine-protein kinase SBK3 (Homo sapiens) (UniProt P0C264)", "assay": "Inhibition of wild-type human partial length SgK110 (L22 to R329 residues) expressed in bacterial expression system at 10 uM by Kinomescan method relative to control"}, "[26]": {"target": "SRSF protein kinase 2 (Homo sapiens) (UniProt P78362)", "assay": "Inhibition of wild-type human full length SRPK2 (M1 to S686 residues) expressed in bacterial expression system at 10 uM by Kinomescan method relative to control"}, "[27]": {"target": "Serine/threonine-protein kinase WNK4 (Homo sapiens) (UniProt Q96J92)", "assay": "Inhibition of wild-type human partial length WNK4 (A31 to D461 residues) expressed in mammalian expression system at 10 uM by Kinomescan method relative to control"}}, "note": "pIC50: −log10 of the molar value."}
{"smiles": "O=C(Nc1cccc([C@@H]2CN(c3ncnc4[nH]ccc34)CCN2CCO)c1)Nc1c(F)cccc1N1CCCC1", "values": [{"measurement": "inhibition", "setting": "[1]", "value": 99, "unit": "%"}, {"measurement": "inhibition", "setting": "[2]", "value": 46, "unit": "%"}, {"measurement": "inhibition", "setting": "[3]", "value": 100, "unit": "%"}, {"measurement": "inhibition", "setting": "[4]", "value": 78, "unit": "%"}, {"measurement": "inhibition", "setting": "[5]", "value": 100, "unit": "%"}, {"measurement": "inhibition", "setting": "[6]", "value": 28, "unit": "%"}, {"measurement": "inhibition", "setting": "[7]", "value": 100, "unit": "%"}, {"measurement": "inhibition", "setting": "[8]", "value": 100, "unit": "%"}, {"measurement": "inhibition", "setting": "[9]", "value": 76, "unit": "%"}, {"measurement": "inhibition", "setting": "[10]", "value": 93, "unit": "%"}, {"measurement": "pIC50", "setting": "[11]", "value": 9.00}]}
{"smiles": "O=C(Nc1cccc([C@H]2CCCN(c3ncnc4[nH]ccc34)C2)c1)Nc1ccccc1N1CCCC1", "values": [{"measurement": "inhibition", "setting": "[12]", "value": 89, "unit": "%"}, {"measurement": "inhibition", "setting": "[13]", "value": 1.1, "unit": "%"}, {"measurement": "inhibition", "setting": "[14]", "value": 100, "unit": "%"}, {"measurement": "inhibition", "setting": "[15]", "value": 3.5, "unit": "%"}, {"measurement": "inhibition", "setting": "[16]", "value": 100, "unit": "%"}, {"measurement": "inhibition", "setting": "[17]", "value": 24, "unit": "%"}, {"measurement": "inhibition", "setting": "[18]", "value": 81, "unit": "%"}, {"measurement": "inhibition", "setting": "[19]", "value": 87, "unit": "%"}, {"measurement": "inhibition", "setting": "[20]", "value": 100, "unit": "%"}, {"measurement": "inhibition", "setting": "[21]", "value": 62, "unit": "%"}, {"measurement": "inhibition", "setting": "[22]", "value": 100, "unit": "%"}, {"measurement": "inhibition", "setting": "[23]", "value": 81, "unit": "%"}, {"measurement": "inhibition", "setting": "[24]", "value": 100, "unit": "%"}, {"measurement": "inhibition", "setting": "[25]", "value": 100, "unit": "%"}, {"measurement": "inhibition", "setting": "[26]", "value": 53, "unit": "%"}, {"measurement": "inhibition", "setting": "[27]", "value": 87, "unit": "%"}]}
